# Experimental data published in publication PMC5218480 (PLoS ONE, 2017).
# System: MV-4-11 cells
# Assay: Gene expression microarray analysis (Affymetrix PrimeView) and GSEA
# Assay type: cell-based, human
# Parameters: RFU PODN (11730768_x_at) / Fold change /veh PODN (11730768_x_at) / RFU LINC00158 (11744669_a_at) / Fold change /veh LINC00158 (11744669_a_at) / RFU DUSP10 (11751237_a_at) / Fold change /veh DUSP10 (11751237_a_at) / RFU ID3 (11757404_x_at) / Fold change /veh ID3 (11757404_x_at) / RFU PLEKHG5 (11737974_s_at) / Fold change /veh PLEKHG5 (11737974_s_at) / RFU LRRC4B (11730491_at) / Fold change /veh LRRC4B (11730491_at) / RFU GIMAP4 (11747438_a_at) / Fold change /veh GIMAP4 (11747438_a_at) / RFU KRT8 (11758183_x_at) / Fold change /veh KRT8 (11758183_x_at) / RFU CNN1 (11734310_a_at) / Fold change /veh CNN1 (11734310_a_at) / RFU VPS37D (11726825_at) / Fold change /veh VPS37D (11726825_at) / RFU C10orf10 (11716522_x_at) / Fold change /veh C10orf10 (11716522_x_at) / RFU KIR2DL2 /// KIR2DL4 /// KIR2DL5A /// KIR2DL5B /// KIR2DS1 /// KIR2DS2 /// KIR2DS3 /// KIR2DS4 /// KIR3DL3 /// KIR3DL3 /// KIR3DS1 (11738374_at) / Fold change /veh KIR2DL2 /// KIR2DL4 /// KIR2DL5A /// KIR2DL5B /// KIR2DS1 /// KIR2DS2 /// KIR2DS3 /// KIR2DS4 /// KIR3DL3 /// KIR3DL3 /// KIR3DS1 (11738374_at) / RFU C1QL1 (11718748_at) / Fold change /veh C1QL1 (11718748_at) / RFU TMPRSS4 (11747572_a_at) / Fold change /veh TMPRSS4 (11747572_a_at) / RFU HAMP (11756126_x_at) / Fold change /veh HAMP (11756126_x_at) / RFU RNFT2 (11725882_a_at) / Fold change /veh RNFT2 (11725882_a_at) / RFU NR4A2 (11747474_a_at) / Fold change /veh NR4A2 (11747474_a_at) / RFU ABCC12 (11746883_a_at) / Fold change /veh ABCC12 (11746883_a_at) / RFU TMEM136 (11760407_x_at) / Fold change /veh TMEM136 (11760407_x_at) / RFU CLDN22 /// WWC2 (11732394_at) / Fold change /veh CLDN22 /// WWC2 (11732394_at) / RFU HLA-DPB1 (11760878_x_at) / Fold change /veh HLA-DPB1 (11760878_x_at) / RFU SPINT1 (11716480_a_at) / Fold change /veh SPINT1 (11716480_a_at) / RFU GAP43 (11754022_s_at) / Fold change /veh GAP43 (11754022_s_at) / RFU A4GNT (11735810_at) / Fold change /veh A4GNT (11735810_at) / RFU PRB3 (11715151_x_at) / Fold change /veh PRB3 (11715151_x_at) / RFU TUBB4B (11761932_at) / Fold change /veh TUBB4B (11761932_at) / RFU CAPN14 (11732068_a_at) / Fold change /veh CAPN14 (11732068_a_at) / RFU TMCC2 (11721928_a_at) / Fold change /veh TMCC2 (11721928_a_at) / RFU IRGQ (11745062_a_at) / Fold change /veh IRGQ (11745062_a_at) / RFU FAM174B (11720279_a_at) / Fold change /veh FAM174B (11720279_a_at) / RFU TMPRSS4 (11748680_a_at) / Fold change /veh TMPRSS4 (11748680_a_at) / RFU FAM212B (11763350_a_at) / Fold change /veh FAM212B (11763350_a_at) / RFU PLEKHG5 (11743358_a_at) / Fold change /veh PLEKHG5 (11743358_a_at) / RFU ZSCAN30 (11745921_a_at) / Fold change /veh ZSCAN30 (11745921_a_at) / RFU CMKLR1 (11741424_a_at) / Fold change /veh CMKLR1 (11741424_a_at) / RFU LOC101060620 /// MAPK8IP1 (11723275_at) / Fold change /veh LOC101060620 /// MAPK8IP1 (11723275_at) / RFU SPTSSB (11747773_x_at) / Fold change /veh SPTSSB (11747773_x_at) / RFU PRSS12 (11739890_at) / Fold change /veh PRSS12 (11739890_at) / RFU BIN1 (11741810_x_at) / Fold change /veh BIN1 (11741810_x_at) / RFU WNT11 (11732464_a_at) / Fold change /veh WNT11 (11732464_a_at) / RFU C10orf10 (11716521_a_at) / Fold change /veh C10orf10 (11716521_a_at) / RFU C5orf56 (11738089_at) / Fold change /veh C5orf56 (11738089_at) / RFU CYB561 (11721691_x_at) / Fold change /veh CYB561 (11721691_x_at) / RFU ANKRD19P (11752326_a_at) / Fold change /veh ANKRD19P (11752326_a_at) / RFU OR2T12 /// OR2T33 /// OR2T8 (11738714_s_at) / Fold change /veh OR2T12 /// OR2T33 /// OR2T8 (11738714_s_at) / RFU VCAN (11748164_a_at) / Fold change /veh VCAN (11748164_a_at) / RFU JSRP1 (11732532_at) / Fold change /veh JSRP1 (11732532_at) / RFU KRTAP10-11 (11738290_x_at) / Fold change /veh KRTAP10-11 (11738290_x_at) / RFU MYO3A (11730013_a_at) / Fold change /veh MYO3A (11730013_a_at) / RFU EBF3 (11725865_a_at) / Fold change /veh EBF3 (11725865_a_at) / RFU CAMK2N1 (11719241_x_at) / Fold change /veh CAMK2N1 (11719241_x_at) / RFU C5orf56 (11738088_a_at) / Fold change /veh C5orf56 (11738088_a_at) / RFU OLFML3 (11715873_a_at) / Fold change /veh OLFML3 (11715873_a_at) / RFU LOC100653217 /// NTM (11731650_a_at) / Fold change /veh LOC100653217 /// NTM (11731650_a_at) / RFU MAPK11 (11762145_a_at) / Fold change /veh MAPK11 (11762145_a_at) / RFU FIZ1 (11724087_x_at) / Fold change /veh FIZ1 (11724087_x_at) / RFU OASL (11726364_x_at) / Fold change /veh OASL (11726364_x_at) / RFU SOX15 (11748057_x_at) / Fold change /veh SOX15 (11748057_x_at) / RFU CD79A (11719716_a_at) / Fold change /veh CD79A (11719716_a_at) / RFU HIST1H1D (11736915_at) / Fold change /veh HIST1H1D (11736915_at) / RFU CASKIN2 (11723855_a_at) / Fold change /veh CASKIN2 (11723855_a_at) / RFU LOC730098 (11760151_x_at) / Fold change /veh LOC730098 (11760151_x_at) / RFU OR4N2 (11742367_at) / Fold change /veh OR4N2 (11742367_at) / RFU PRRT2 (11749266_a_at) / Fold change /veh PRRT2 (11749266_a_at) / RFU SNX32 (11753110_a_at) / Fold change /veh SNX32 (11753110_a_at) / RFU CDHR5 (11726645_a_at) / Fold change /veh CDHR5 (11726645_a_at) / RFU RCAN1 (11760418_a_at) / Fold change /veh RCAN1 (11760418_a_at) / RFU FAM167A (11723789_a_at) / Fold change /veh FAM167A (11723789_a_at) / RFU FAM26E (11764081_at) / Fold change /veh FAM26E (11764081_at) / RFU ISYNA1 (11749810_s_at) / Fold change /veh ISYNA1 (11749810_s_at) / RFU ACY1 (11761880_at) / Fold change /veh ACY1 (11761880_at) / RFU 11764098_at / Fold change /veh 11764098_at / RFU SAMD14 (11745864_x_at) / Fold change /veh SAMD14 (11745864_x_at) / RFU NPB (11741838_a_at) / Fold change /veh NPB (11741838_a_at) / RFU TMPRSS6 (11731388_a_at) / Fold change /veh TMPRSS6 (11731388_a_at) / RFU KRTAP10-2 (11738614_at) / Fold change /veh KRTAP10-2 (11738614_at) / RFU ARHGAP8 /// PRR5-ARHGAP8 (11727945_x_at) / Fold change /veh ARHGAP8 /// PRR5-ARHGAP8 (11727945_x_at) / RFU KRTAP5-7 /// NADSYN1 (11734609_at) / Fold change /veh KRTAP5-7 /// NADSYN1 (11734609_at) / RFU RASL12 (11751679_a_at) / Fold change /veh RASL12 (11751679_a_at) / RFU CDKN2B (11736163_a_at) / Fold change /veh CDKN2B (11736163_a_at) / RFU PRF1 (11729649_at) / Fold change /veh PRF1 (11729649_at) / RFU, ZNF638 /// ZNF638-IT1 / Fold change vs veh, ZNF638 /// ZNF638-IT1 / RFU, PANK3 / Fold change vs veh, PANK3 / RFU, SH3YL1 / Fold change vs veh, SH3YL1 / RFU, ZEB2 / Fold change vs veh, ZEB2 / RFU, NRIP1 / Fold change vs veh, NRIP1 / RFU, PTTG1IP / Fold change vs veh, PTTG1IP / RFU, CAPN2 / Fold change vs veh, CAPN2 / RFU, MED14 / Fold change vs veh, MED14 / RFU, SNORA58 / Fold change vs veh, SNORA58 / RFU, C1orf63 / Fold change vs veh, C1orf63 / RFU, LRRFIP1 / Fold change vs veh, LRRFIP1 / RFU, NDUFAF7 / Fold change vs veh, NDUFAF7 / RFU, SLC12A2 / Fold change vs veh, SLC12A2 / RFU, IBTK / Fold change vs veh, IBTK / RFU, ESF1 / Fold change vs veh, ESF1 / Fold change vs veh, TMEM50B / RFU, TAOK1 / Fold change vs veh, TAOK1 / RFU, ACBD3 / Fold change vs veh, ACBD3 / RFU, TMA16 / Fold change vs veh, TMA16 / RFU, RWDD3 / Fold change vs veh, RWDD3 / RFU, BCAT1 / Fold change vs veh, BCAT1 / RFU, EDEM3 / Fold change vs veh, EDEM3 / RFU, TMEM33 / Fold change vs veh, TMEM33 / RFU, WDR75 / Fold change vs veh, WDR75 / RFU, AHCTF1 / Fold change vs veh, AHCTF1 / RFU, TFRC / Fold change vs veh, TFRC / RFU, ZDHHC17 / Fold change vs veh, ZDHHC17 / RFU, NOM1 / Fold change vs veh, NOM1 / RFU, ARL8B / Fold change vs veh, ARL8B / RFU, ZBTB11 / Fold change vs veh, ZBTB11 / RFU, TAMM41 / Fold change vs veh, TAMM41 / RFU, KIAA1704 /// LOC100996395 / Fold change vs veh, KIAA1704 /// LOC100996395 / RFU, ING1 / Fold change vs veh, ING1 / RFU, TRMT61B / Fold change vs veh, TRMT61B / RFU, FUBP3 / Fold change vs veh, FUBP3 / RFU, TP53 / Fold change vs veh, TP53 / RFU, TNKS2 / Fold change vs veh, TNKS2 / RFU, ZFP14 / Fold change vs veh, ZFP14 / RFU, ACTR2 / Fold change vs veh, ACTR2 / RFU, PPP3R1 / Fold change vs veh, PPP3R1 / RFU, PIK3R1 / Fold change vs veh, PIK3R1 / RFU, HNRNPA1 / Fold change vs veh, HNRNPA1 / RFU, RNF170 / Fold change vs veh, RNF170 / RFU, ZNF28 / Fold change vs veh, ZNF28 / RFU, RNGTT / Fold change vs veh, RNGTT / RFU, OGT / Fold change vs veh, OGT / RFU, BRD1 / Fold change vs veh, BRD1 / RFU, MARS / Fold change vs veh, MARS / RFU, ZNF655 / Fold change vs veh, ZNF655 / RFU, FAHD1 / Fold change vs veh, FAHD1 / RFU, BDP1 / Fold change vs veh, BDP1 / RFU, LRRCC1 / Fold change vs veh, LRRCC1 / RFU, ARID1A / Fold change vs veh, ARID1A / RFU, ZNF146 / Fold change vs veh, ZNF146 / RFU, ZNF330 / Fold change vs veh, ZNF330 / RFU, GPN3 / Fold change vs veh, GPN3 / RFU, C9orf123 / Fold change vs veh, C9orf123 / RFU, N4BP2L2 / Fold change vs veh, N4BP2L2 / RFU, ARFIP1 / Fold change vs veh, ARFIP1 / RFU, FAM179B / Fold change vs veh, FAM179B / RFU, BCL10 / Fold change vs veh, BCL10 / RFU, UHRF1BP1L / Fold change vs veh, UHRF1BP1L / RFU, BET1 / Fold change vs veh, BET1 / RFU, CNOT2 / Fold change vs veh, CNOT2 / RFU, ZNF268 / Fold change vs veh, ZNF268 / Fold change vs veh, ZNF507 / RFU, DGCR2 / Fold change vs veh, DGCR2 / RFU, WDSUB1 / Fold change vs veh, WDSUB1 / Fold change vs veh, HSP90B1 /// MIR3652 / RFU, ADSS / Fold change vs veh, ADSS / RFU, GK / Fold change vs veh, GK / RFU, ZNF148 / Fold change vs veh, ZNF148 / RFU, TAF9 / Fold change vs veh, TAF9 / RFU, SLC1A5 / Fold change vs veh, SLC1A5 / RFU, SLMO2 / Fold change vs veh, SLMO2 / RFU, ABCC4 / Fold change vs veh, ABCC4 / RFU, LOC101060439 /// RAP1B / Fold change vs veh, LOC101060439 /// RAP1B / RFU, RFX7 / Fold change vs veh, RFX7 / RFU, GTPBP10 / Fold change vs veh, GTPBP10 / RFU, CNEP1R1 / Fold change vs veh, CNEP1R1 / RFU, BIVM-ERCC5 /// ERCC5 / Fold change vs veh, BIVM-ERCC5 /// ERCC5 / RFU, ILF3 / Fold change vs veh, ILF3 / RFU 11762660_at / Fold change /veh 11762660_at / RFU VCAN (11757783_s_at) / Fold change /veh VCAN (11757783_s_at) / RFU DDX43 (11728927_at) / Fold change /veh DDX43 (11728927_at) / RFU KRT8 (11758188_x_at) / Fold change /veh KRT8 (11758188_x_at) / RFU NKD1 (11759106_at) / Fold change /veh NKD1 (11759106_at) / RFU SRD5A1 (11742802_a_at) / Fold change /veh SRD5A1 (11742802_a_at) / RFU TPSAB1 /// TPSB2 (11721975_s_at) / Fold change /veh TPSAB1 /// TPSB2 (11721975_s_at) / RFU GSTM3 (11746129_a_at) / Fold change /veh GSTM3 (11746129_a_at) / RFU IL23R (11737362_x_at) / Fold change /veh IL23R (11737362_x_at) / RFU TMEM51 (11727254_a_at) / Fold change /veh TMEM51 (11727254_a_at) / RFU PIWIL2 (11732686_x_at) / Fold change /veh PIWIL2 (11732686_x_at) / RFU ORM1 (11744905_x_at) / Fold change /veh ORM1 (11744905_x_at) / RFU CCDC152 (11743942_at) / Fold change /veh CCDC152 (11743942_at) / RFU ECM1 (11717891_a_at) / Fold change /veh ECM1 (11717891_a_at) / RFU IL23R (11748794_a_at) / Fold change /veh IL23R (11748794_a_at) / RFU TNFAIP8L3 (11732012_x_at) / Fold change /veh TNFAIP8L3 (11732012_x_at) / RFU MBOAT4 (11741988_at) / Fold change /veh MBOAT4 (11741988_at) / RFU 11764193_at / Fold change /veh 11764193_at / RFU TMEM53 (11763286_at) / Fold change /veh TMEM53 (11763286_at) / RFU MAGEB2 (11727129_at) / Fold change /veh MAGEB2 (11727129_at) / RFU TMEM200A (11744735_a_at) / Fold change /veh TMEM200A (11744735_a_at) / RFU CCDC152 (11751479_a_at) / Fold change /veh CCDC152 (11751479_a_at) / RFU FAM211A (11726209_a_at) / Fold change /veh FAM211A (11726209_a_at) / RFU RGS16 (11746705_a_at) / Fold change /veh RGS16 (11746705_a_at) / RFU VCAN (11755009_s_at) / Fold change /veh VCAN (11755009_s_at) / RFU RHOB (11743442_s_at) / Fold change /veh RHOB (11743442_s_at) / RFU RGS16 (11720943_a_at) / Fold change /veh RGS16 (11720943_a_at) / RFU RGS16 (11720944_at) / Fold change /veh RGS16 (11720944_at) / RFU, VPS4B / Fold change vs veh, VPS4B / RFU, CREB1 / Fold change vs veh, CREB1 / RFU, DNAJC13 / Fold change vs veh, DNAJC13 / RFU, GNAQ / Fold change vs veh, GNAQ / RFU, CDK5R1 / Fold change vs veh, CDK5R1 / RFU, ZRANB3 / Fold change vs veh, ZRANB3 / RFU, CUL4A / Fold change vs veh, CUL4A / RFU, CCNY / Fold change vs veh, CCNY / RFU, UFL1 / Fold change vs veh, UFL1 / RFU, COG3 / Fold change vs veh, COG3 / RFU, DIAPH2 / Fold change vs veh, DIAPH2 / RFU, SKA2 / Fold change vs veh, SKA2 / RFU, AFF3 / Fold change vs veh, AFF3 / RFU, LMF1 / Fold change vs veh, LMF1 / RFU, IPO11 / Fold change vs veh, IPO11 / RFU, DFFB / Fold change vs veh, DFFB / RFU, FOXP1 / Fold change vs veh, FOXP1 / RFU, CARD8 / Fold change vs veh, CARD8 / RFU, STRN3 / Fold change vs veh, STRN3 / RFU, ADK / Fold change vs veh, ADK / RFU, RASSF2 / Fold change vs veh, RASSF2 / RFU, WIPF1 / Fold change vs veh, WIPF1 / RFU, LARP1B / Fold change vs veh, LARP1B / RFU, RASA1 / Fold change vs veh, RASA1 / RFU, RB1 / Fold change vs veh, RB1 / RFU, PPFIA1 / Fold change vs veh, PPFIA1 / RFU, MAT2A / Fold change vs veh, MAT2A / RFU, CCT5 / Fold change vs veh, CCT5 / RFU, WDR92 / Fold change vs veh, WDR92 / RFU, CUX1 / Fold change vs veh, CUX1 / RFU, TTC7A / Fold change vs veh, TTC7A / RFU, TMEM135 / Fold change vs veh, TMEM135 / RFU, DEPTOR / Fold change vs veh, DEPTOR / RFU, CPM / Fold change vs veh, CPM / RFU, DNAJB6 / Fold change vs veh, DNAJB6 / RFU, CACNA2D3 / Fold change vs veh, CACNA2D3 / RFU, DTX4 / Fold change vs veh, DTX4 / RFU, TFCP2 / Fold change vs veh, TFCP2 / RFU, GMCL1 /// GMCL1P1 / Fold change vs veh, GMCL1 /// GMCL1P1 / RFU, AEBP2 / Fold change vs veh, AEBP2 / RFU, SNHG1 /// SNORD22 /// SNORD25 /// SNORD26 /// SNORD27 /// SNORD28 /// SNORD29 /// SNORD31 / Fold change vs veh, SNHG1 /// SNORD22 /// SNORD25 /// SNORD26 /// SNORD27 /// SNORD28 /// SNORD29 /// SNORD31 / Fold change (Aza/veh), C12orf56 (ProbeSet 11735607_a_at) / Fold change (ACY-1035/veh), C12orf56 (ProbeSet 11735607_a_at) / Fold change (Aza/veh), FGFR1OP (ProbeSet 11751329_s_at) / Fold change (ACY-1035/veh), FGFR1OP (ProbeSet 11751329_s_at) / Fold change (Aza/veh), VPS36 (ProbeSet 11739960_a_at) / Fold change (ACY-1035/veh), VPS36 (ProbeSet 11739960_a_at) / RFU SYPL1 (11715823_x_at) / Fold change /veh SYPL1 (11715823_x_at) / RFU IGFBP7 (11715501_s_at) / Fold change /veh IGFBP7 (11715501_s_at) / RFU REEP3 (11722064_at) / Fold change /veh REEP3 (11722064_at) / RFU IGLL1 (11728026_x_at) / Fold change /veh IGLL1 (11728026_x_at): dose or concentration left out as unconfirmed
# Conditions: MV-4-11 cells, 48 hours
smiles,measurement,value
Nc1ncn([C@@H]2O[C@H](CO)[C@@H](O)[C@H]2O)c(=O)n1 [azacitidine],RFU REEP3 (11722064_at),27.20 RFU
